Activity calls are given as the source filed them. The rule behind the calls is not given here.
Key:
HCT-116 [1] = test: Cytotoxicity against human p53-positive HCT116 cells assessed as cell viability up to 100 uM after 24 hrs by MTT assay; type: functional, cell-based
[2] = tested on: Radical scavenging activity; test: Antioxidant activity assessed as DPPH radical scavenging activity; type: functional
HL-60 [3] = test: Cytotoxicity against human HL60 cells assessed as cell survival at 40 uM after 72 hrs by MTT assay relative to control; type: functional; details: HL-60, 72 h, read-out: Survival
Aromatase = target: T1, Aromatase (Homo sapiens, UniProt P11511); test: Inhibition of human placental aromatase
T1 sequence (P11511 whole entry): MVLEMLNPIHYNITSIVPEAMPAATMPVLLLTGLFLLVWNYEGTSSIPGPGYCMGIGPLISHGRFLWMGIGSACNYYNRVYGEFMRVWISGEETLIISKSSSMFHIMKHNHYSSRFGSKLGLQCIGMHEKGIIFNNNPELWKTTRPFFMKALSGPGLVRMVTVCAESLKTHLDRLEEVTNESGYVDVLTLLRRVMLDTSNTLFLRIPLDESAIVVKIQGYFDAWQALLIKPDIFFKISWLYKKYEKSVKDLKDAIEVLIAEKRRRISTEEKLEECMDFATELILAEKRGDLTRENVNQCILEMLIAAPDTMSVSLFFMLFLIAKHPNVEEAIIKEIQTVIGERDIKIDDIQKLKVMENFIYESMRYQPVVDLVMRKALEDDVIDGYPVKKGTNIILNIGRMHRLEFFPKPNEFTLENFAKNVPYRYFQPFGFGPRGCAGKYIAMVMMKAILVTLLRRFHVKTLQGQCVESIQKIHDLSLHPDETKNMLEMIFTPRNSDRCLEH

HL-60 [4] = test: Cytotoxicity against human HL60 cells assessed as cell survival at 200 uM after 72 hrs by MTT assay relative to control; type: functional; details: HL-60, 72 h, read-out: Survival
Steinernema feltiae = test: Nematicidal activity against Steinernema feltiae assessed as viability up to 200 uM after 48 hrs by microscopic analysis; type: functional
HCT-116 [5] = test: Cytotoxicity against human p53-positive HCT116 cells assessed as cell viability after 24 hrs by MTT assay; type: functional, cell-based; details: HCT-116, 24 h

COc1ccc2c(c1)N[C@H]1c3ccc(O)cc3OC[C@@H]21 (racemic)
Activity (HCT-116 [1]): inactive | IC50 [2]: > 300 µM | viability at 40 µM (HL-60 [3]): 72% | IC50 (Aromatase): > 300 µM | viability at 200 µM (HL-60 [4]): 27% | Activity (Steinernema feltiae): inactive

COc1ccc2c3c([nH]c2c1)-c1ccc(O)cc1OC3
IC50 (HCT-116 [5]): 66.1 µM

— ChEMBL document CHEMBL3132838, “Synthesis of chromenoindole derivatives from Robinia pseudoacacia” (Medchemcomm, 2013)
